# Source: patent EP0199302A2, “Contraception in dogs with luteinizing hormone releasing hormone antagonists” (SYNTEX (U.S.A.) INC., priority 1985, dated 1986)
# Columns and labels:
# pregnant beagle bitches = test: Effect of time of dosing with two LHRH antagonists on pregnancy in bitches (Example 2, Table 1); format: in vivo, dogs; settings: daily injection for seven days, 300 µg/kg/day
# Experimental: Several pregnant beagle bitches were treated with one of two different LHRH antagonists by subcutaneous injection.
# bitch = test: Plasma progesterone and pregnancy outcome in a bitch given daily subcutaneous injections for 7 days (Example 1); format: in vivo, dogs
# Text: A bitch was bled and the plasma progesterone measured in nanograms per milliliter versus the day of diestrus. The bitch was bled on day -8 and day -4. The plasma progesterone was 4 to 6 nanograms per milliliter on those two days. At day 1, the plasma progesterone was at 30 nanograms per milliliter and peaked at about 60 on day 9 slowly decreasing to about 30 on day 25. At day 25 the bitch started to receive daily subcutaneous 1 2 3 injections of [N-Ac-D-Nal(2) , D-p-Cl-Phe , D-Trp , D-Deh , D-Ala ] LHRH for 7 days. After the first injection the plasma progesterone level immediately dropped to 4 nanograms per milliliter. At the end of the course of treatment, the level of plasma progesterone was down below 1 nanogram per milliliter. A fetus was expelled the 5th day of treatment and a tissue mass was expelled on day 49, which was 24 days after the start of treatment.
# pregnant cats = test: Seven-day subcutaneous minipump infusion in pregnant cats: plasma progesterone and pregnancy (Example 5); format: in vivo; settings: for Plasma level of progesterone: 300 μg/kg/day for seven days
# Experimental: Female cats were bred and 15-18 days later were implanted subcutaneously with an Alzet^8 minipump filled with a solution of [N-Ac-D-Nal(2) , D-p-Cl-Phe , D-Trp , D-Deh ,D-Ala ]LHRH in propylene glycol at a concentration sufficient to deliver 300 µg/kg/day. The pumps were removed after seven days. No effect of treatment on circulating levels of progesterone could be discerned in daily plasma samples.
# beagle bitch [1] = test: Single subcutaneous injection in a pregnant beagle bitch: plasma progesterone and abortion (Example 3); format: in vivo, dogs; settings: single subcutaneous injection of 50 mg on the twenty-ninth day of pregnancy
# Experimental: A beagle bitch was bred and confirmed to be pregnant by manual palpation of the uterus during the fourth week of gestation. On the twenty-ninth day of pregnancy […] was administered a single subcutaneous injection of an aqueous solution of 50 mg of [N-Ac-D-Nal(2) , D-p-C1-Phe, D-Trp , D-Deh , D-Ala ]LHRH. Immediately before injection the plasma progesterone levels was 19ng/ml and by 24 hours after injection this had declined to 3.3 ng/ml. Plasma levels of progesterone varied thereafter from day to day but were never above 6 ng/ml. Delivery of an abortus was noted on the 36th day of pregnancy.
# beagle bitch [2] = test: Termination of estrus in a beagle bitch (Example 4); format: in vivo, dogs; settings: 300 µg/kg/day for 14 days started on day 2 (entering estrus)
# Experimental: A beagle bitch was identified with a slight sanguineous vaginal discharge (day 1 of the experiment). Microscopic evaluation of vaginal cytology confirmed the bitch to be in proestrus. […] She was immediately started on a course of treatment of 300 µg/kg/day for 14 days of [N-Ac-D-Nal(2) , D-p-Cl-Phe , D-Trp , D-Deh ,D-Ala ]LHRH.
# The vaginal discharge diminished and was last noted on day 5. By day 6 the bitch was confirmed by vaginal cytology to have reentered diestrus.
substance,measurement,setting,value
N-Ac-D-Nal(2)-D-pCL-Phe-D-Trp-Ser-Tyr-D-Deh-Leu-Arg-ProD-Ala,COMMENT (pregnancy outcome),"pregnant beagle bitches; dog 1, treatment on days 36-42 of pregnancy",Aborted on days 39-41 of pregnancy
same,COMMENT (pregnancy outcome),"pregnant beagle bitches; dog 2, treatment on days 32-38 of pregnancy",Aborted on day 35 of pregnancy
same,level of plasma progesterone at the end of the course of treatment,"bitch; bitch, daily subcutaneous injections for 7 days starting day 25 of diestrus",below 1 nanogram per milliliter
same,plasma progesterone level after the first injection,"bitch; bitch, daily subcutaneous injections for 7 days starting day 25 of diestrus, about 30 on day 25 before treatment",4 nanograms per milliliter
same,"tissue mass expelled, day","bitch; day of diestrus, 24 days after the start of treatment",49
same,Plasma level of progesterone,"pregnant cats; Cat 1, day 0 from treatment",4.0 ng/mL
same,Plasma level of progesterone,"pregnant cats; Cat 1, day 1 from treatment",2.7 ng/mL
same,Plasma level of progesterone,"pregnant cats; Cat 1, day 2 from treatment",4.3 ng/mL
same,Plasma level of progesterone,"pregnant cats; Cat 1, day 3 from treatment",4.0 ng/mL
same,Plasma level of progesterone,"pregnant cats; Cat 1, day 4 from treatment",4.4 ng/mL
same,Plasma level of progesterone,"pregnant cats; Cat 1, day 5 from treatment",3.8 ng/mL
same,Plasma level of progesterone,"pregnant cats; Cat 1, day 6 from treatment",5.7 ng/mL
same,Plasma level of progesterone,"pregnant cats; Cat 1, day 7 from treatment",3.3 ng/mL
same,Plasma level of progesterone,"pregnant cats; Cat 1, day 8 from treatment",6.5 ng/mL
same,Plasma level of progesterone,"pregnant cats; Cat 1, day 9 from treatment",6.7 ng/mL
same,Plasma level of progesterone,"pregnant cats; Cat 1, day 10 from treatment",5.2 ng/mL
same,Plasma level of progesterone,"pregnant cats; Cat 1, day -1 from treatment (before treatment)",2.0 ng/mL
same,Plasma level of progesterone,"pregnant cats; Cat 1, day -2 from treatment (before treatment)",4.5 ng/mL
same,Plasma level of progesterone,"pregnant cats; Cat 2, day 0 from treatment",2.3 ng/mL
same,Plasma level of progesterone,"pregnant cats; Cat 2, day 1 from treatment",4.1 ng/mL
same,Plasma level of progesterone,"pregnant cats; Cat 2, day 2 from treatment",5.2 ng/mL
same,Plasma level of progesterone,"pregnant cats; Cat 2, day 3 from treatment",3.9 ng/mL
same,Plasma level of progesterone,"pregnant cats; Cat 2, day 4 from treatment",4.2 ng/mL
same,Plasma level of progesterone,"pregnant cats; Cat 2, day 5 from treatment",4.2 ng/mL
same,Plasma level of progesterone,"pregnant cats; Cat 2, day 6 from treatment",6.3 ng/mL
same,Plasma level of progesterone,"pregnant cats; Cat 2, day 7 from treatment",5.5 ng/mL
same,Plasma level of progesterone,"pregnant cats; Cat 2, day 8 from treatment",6.1 ng/mL
same,Plasma level of progesterone,"pregnant cats; Cat 2, day 9 from treatment",7.3 ng/mL
same,Plasma level of progesterone,"pregnant cats; Cat 2, day 10 from treatment",6.7 ng/mL
same,Plasma level of progesterone,"pregnant cats; Cat 2, day -1 from treatment (before treatment)",3.0 ng/mL
same,Plasma level of progesterone,"pregnant cats; Cat 2, day -2 from treatment (before treatment)",4.3 ng/mL
same,pregnancy outcome,"pregnant cats; cats implanted 15-18 days after breeding, minipump 300 µg/kg/day for seven days",All treated cats continued to normal uneventful term delivery
same,effect of treatment on circulating levels of progesterone,"pregnant cats; cats implanted 15-18 days after breeding, minipump 300 µg/kg/day for seven days, daily plasma samples",No effect
same,plasma progesterone level 24 hours after injection,beagle bitch [1]; 19ng/ml immediately before injection,3.3 ng/mL
same,plasma levels of progesterone thereafter,"beagle bitch [1]; later than 24 hours, varied from day to day",≤ 6 ng/mL
same,attractiveness to stud males,beagle bitch [2],not attractive to stud males
same,"reentered diestrus confirmed by vaginal cytology, day of the experiment",beagle bitch [2],≤ 6
same,sexual receptivity,beagle bitch [2],no sign of sexual receptivity
same,"vaginal discharge last noted, day of the experiment",beagle bitch [2],5
